ChEMBL document CHEMBL1201862, “PubChem BioAssay data set” (2004)
Activity calls are given as the source filed them.

Columns and labels:
[1] = Luminescence Cell-Based Dose Confirmation HTS to Identify Inhibitors of Platelet Dense Granule Release. [Related pubchem assays: 1663 (Primary HTS), 1678 (Summary of Project)]; format: functional
[2] = molecular target: Luciferin 4-monooxygenase (Photinus pyralis, UniProt P08659); test: firefly luciferase enzyme inhibitors, dose response, biochemical, luminescence (AID 1891)
Sequence of Luciferin 4-monooxygenase (P08659 whole entry): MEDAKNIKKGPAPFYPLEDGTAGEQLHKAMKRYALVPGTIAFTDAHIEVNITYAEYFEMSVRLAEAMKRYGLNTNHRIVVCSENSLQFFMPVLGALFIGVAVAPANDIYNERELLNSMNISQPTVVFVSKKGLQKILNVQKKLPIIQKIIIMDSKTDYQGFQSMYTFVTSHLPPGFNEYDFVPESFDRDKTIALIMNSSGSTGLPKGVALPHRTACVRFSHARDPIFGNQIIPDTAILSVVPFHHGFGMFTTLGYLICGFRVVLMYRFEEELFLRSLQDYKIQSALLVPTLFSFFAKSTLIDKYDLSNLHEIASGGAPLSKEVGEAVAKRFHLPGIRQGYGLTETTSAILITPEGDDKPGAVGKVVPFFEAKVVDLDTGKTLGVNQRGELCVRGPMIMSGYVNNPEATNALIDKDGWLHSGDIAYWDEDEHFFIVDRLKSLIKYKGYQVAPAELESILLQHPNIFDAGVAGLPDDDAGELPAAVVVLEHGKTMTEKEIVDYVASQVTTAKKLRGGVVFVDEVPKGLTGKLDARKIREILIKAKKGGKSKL

[3] = cytotoxicity in HEK-293T cells, dose response, cytotoxicity control for BCR NF-kB inhibitor project, luminescence, B-cell screen hits (AID 489021); format: functional, cell-based;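 note: HEK-293T cells carrying an NF-kB luciferase reporter; cells exposed to compound for about 14 hours before viability readout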
[4] = inhibitors of HIV Env-driven cell fusion, dose response, cherry-pick (AID 652057); format: functional, cell-based
[5] = inhibitors of clade B AD8 Env fusion, dose response, cell-based, cherry-pick (AID 652062); format: functional;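 note: luciferase signal from cell-cell fusion driven by HIV-1 clade B AD8 Env; potency is for inhibitors of fusion seen as a drop in luminescence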
[6] = ZM109 Env clade C HIV-1 fusion inhibitors, dose response, HeLa effector, CEM target cells, luciferase, cherry-pick (AID 652058); format: functional, cell-based
[7] = off-target signal loss in HeLa-CEM21 co-culture – HeLa F-luc CTL cells, cherry-picked, counter-screen for HIV-1 Env fusion inhibitor project, dose response (AID 652040); format: functional, cell-based;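 note: potency for signal decrease marking cytotoxic or nonspecific inhibition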
[8] = microbe, parasite or virus in culture; format: functional; conditions: Mycobacterium tuberculosis
[9] = Luminescence Cell-Based Dose Retest to Confirm Inhibitors of Cancer Stem Cells. [Related pubchem assays (depositor defined):AID2717, AID2721]; format: functional; conditions: Homo sapiens
[10] = growth suppression of beta-catenin-knockout colon cells, dose response, cell-based, HCT116, human colon tumor (AID 1045); format: functional;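 note: HCT116 colon tumor cells with beta catenin knocked out; cells exposed to compound for 60 hours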
[11] = growth suppression of PTEN-null colon cells, dose response, cell-based, HCT116 PTEN knockout (AID 1047); format: functional;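 note: HCT116 colon tumor cells with PTEN knocked out; cells exposed to compound for 60 hours before readout; potency for loss of cell viability measured by luminescence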
[12] = THP-1 cell cytotoxicity, dose response, cytotoxicity control for Vif-APOBEC3G degradation inhibitor project, THP-1 cells (AID 1117359); format: functional; conditions: Human immunodeficiency virus 1, THP-1
Estrogen receptor = molecular target: T1, Estrogen receptor (Homo sapiens, UniProt P03372);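 note: potency for inhibiting coactivator peptide recruitment to the receptor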
T1 sequence (P03372 whole entry): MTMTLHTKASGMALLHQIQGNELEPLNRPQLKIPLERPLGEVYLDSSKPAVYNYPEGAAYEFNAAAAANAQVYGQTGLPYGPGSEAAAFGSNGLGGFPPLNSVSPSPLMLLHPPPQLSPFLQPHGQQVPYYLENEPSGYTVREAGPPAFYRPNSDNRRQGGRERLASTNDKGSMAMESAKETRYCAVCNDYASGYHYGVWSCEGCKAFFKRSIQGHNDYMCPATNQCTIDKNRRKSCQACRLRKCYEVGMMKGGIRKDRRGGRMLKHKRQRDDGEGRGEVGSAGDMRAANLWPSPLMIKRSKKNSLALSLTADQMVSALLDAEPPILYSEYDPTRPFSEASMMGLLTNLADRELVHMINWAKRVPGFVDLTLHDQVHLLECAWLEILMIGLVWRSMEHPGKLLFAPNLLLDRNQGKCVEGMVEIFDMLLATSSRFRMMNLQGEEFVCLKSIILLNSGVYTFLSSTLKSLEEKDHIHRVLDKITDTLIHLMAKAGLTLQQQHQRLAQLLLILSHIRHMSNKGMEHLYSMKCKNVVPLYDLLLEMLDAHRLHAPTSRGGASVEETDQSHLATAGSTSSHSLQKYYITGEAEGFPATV

Leucine aminopeptidase = molecular target: T2, Leucine aminopeptidase (Plasmodium falciparum 3D7, UniProt Q8IL11); test: P. falciparum M17LAP inhibitors, primary screen, biochemical, fluorogenic H-Leu-NHMec substrate, 1536-well (AID 1619); format: functional
T2 sequence (Q8IL11 whole entry): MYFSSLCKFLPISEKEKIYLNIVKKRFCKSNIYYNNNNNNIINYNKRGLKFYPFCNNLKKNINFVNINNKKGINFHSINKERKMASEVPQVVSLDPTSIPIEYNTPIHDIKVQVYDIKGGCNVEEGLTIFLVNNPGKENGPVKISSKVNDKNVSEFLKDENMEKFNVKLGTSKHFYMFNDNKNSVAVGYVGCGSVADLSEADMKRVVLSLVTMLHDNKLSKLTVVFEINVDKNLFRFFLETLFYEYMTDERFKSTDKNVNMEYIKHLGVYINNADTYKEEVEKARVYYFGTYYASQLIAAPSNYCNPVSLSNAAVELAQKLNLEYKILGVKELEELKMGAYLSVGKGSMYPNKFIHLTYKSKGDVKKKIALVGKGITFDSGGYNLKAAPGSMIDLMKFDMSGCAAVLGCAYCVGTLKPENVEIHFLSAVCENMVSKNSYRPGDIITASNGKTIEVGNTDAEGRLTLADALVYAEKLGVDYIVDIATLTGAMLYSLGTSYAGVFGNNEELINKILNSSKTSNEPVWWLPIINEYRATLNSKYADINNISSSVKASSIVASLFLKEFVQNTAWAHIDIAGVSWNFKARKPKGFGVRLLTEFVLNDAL

Question: With COc1ccc(S(=O)(=O)NCC(c2cccnc2)N2CCN(C)CC2)cc1C (stereo not given) as the compound, how does the EC50 [1] read?
Answer: The EC50 was > 112 µM (not active).

Question: And the EC50 [2]?
Answer: Its EC50 is > 112 µM (not active).

Question: For Cc1ccc2sc(NC(=O)C3CC3)nc2c1C, which EC50 [1] is on record?
Answer: The EC50 was > 112 µM (not active).

Question: What about the EC50 [2] of the same compound?
Answer: Its EC50 is > 112 µM (not active).

Question: For CCOC(=O)C1CCN(c2ncnc3c2cnn3-c2ccc(OC)cc2)CC1, which IC50 [3] is on record?
Answer: Its IC50 is > 80 µM (inactive).

Question: Which EC50 [1] does the source give for O=C1NC(=O)N(Cc2ccco2)C(=O)/C1=C/NC1CC1 here?
Answer: The EC50 was > 112 µM (not active).

Question: What about the EC50 [2] of the same compound?
Answer: The EC50 was > 112 µM (not active).

Question: What does the source list for CCOC(=O)c1c(-c2ccc(C)o2)csc1N?
Answer: EC50 [1]: > 112 µM (not active); EC50 [2]: > 112 µM (not active)

Question: With CC[C@]1(C(=O)OC)[C@H]2C(=O)N(Cc3ccccc3)C(=O)[C@H]2[C@H]2CN=C(SCC3CC3)N21 as the compound, how does the AC50 [4] read?
Answer: Its AC50 is 1.12 µM (active).

Question: What about the AC50 [5] of the same compound?
Answer: The AC50 was 5.46 µM (active).

Question: And the AC50 [6]?
Answer: Its AC50 is 1.45 µM (active).

Question: What about the AC50 [7] of the same compound?
Answer: The AC50 was 2.66 µM (active).

Question: For CC[C@@]12C(=O)N(c3ccccc3)C(=O)N1[C@H](c1cccc(C)c1)[C@@H]1C(=O)N(Cc3ccccc3)C(=O)[C@@H]12, which AC50 [4] is on record?
Answer: The AC50 was 3.83 µM (active).

Question: What about the AC50 [5] of the same compound?
Answer: Its AC50 is 5.26 µM (active).

Question: What about the AC50 [6] of the same compound?
Answer: Its AC50 is 3.8 µM (active).

Question: What about the AC50 [7] of the same compound?
Answer: The AC50 was 4.02 µM (active).

Question: With Cc1ccc(-c2nn3c(C)nnc3c3ccccc23)cc1S(=O)(=O)NC(C)(C)CO as the compound, how does the IC50 [3] read?
Answer: The IC50 was > 80 µM (inactive).

Question: With Cc1ccc(-c2cc(-c3ccccc3C)[nH]n2)c(O)c1 as the compound, how does the CC50 [8] read?
Answer: The CC50 was > 40 µM (active).

Question: What about the AC50 [9] of the same compound?
Answer: Its AC50 is 7.98 µM (active).

Question: What does the source list for COc1cccc(C(c2sc3nc(C)nn3c2O)N2CCN(c3ccccc3F)CC2)c1 (stereo not given)?
Answer: EC50 [1]: > 112 µM (not active); EC50 [2]: > 112 µM (not active)

Question: For Cc1cc(NC(=O)CCC(=O)N(C2CC2)C2(C(=O)NC3CCCC3)CCC(C)CC2)no1 (stereo not given), which AC50 [4] is on record?
Answer: Its AC50 is 5.4 µM (active).

Question: And the AC50 [5]?
Answer: Its AC50 is 13.4 µM (active).

Question: And the AC50 [6]?
Answer: Its AC50 is 3.3 µM (active).

Question: What about the AC50 [7] of the same compound?
Answer: Its AC50 is 6.16 µM (active).

Question: For CCOC(=O)N1CCc2c(sc(NC(=O)c3ccc(Cl)s3)c2C(N)=O)C1, which EC50 [10] is on record?
Answer: Its EC50 is 19.4 µM (active).

Question: And the CC50 [8]?
Answer: Its CC50 is 17.3 µM (active).

Question: And the EC50 [11]?
Answer: Its EC50 is 15.7 µM (active).

Question: Which CC50 [12] does the source give for COc1ccc(NC(=O)/C(C#N)=C\c2ccc(Br)o2)cc1 here?
Answer: Its CC50 is 3.4 µM (active).

Question: For COC(=O)c1cc(NC(=O)Cn2c(=O)cnc3ccccc32)cc(C(=O)OC)c1, which IC50 (Estrogen receptor) is on record?
Answer: Its IC50 is > 50 µM (not active).

Question: With CN1CCN(c2cc(-c3ccccc3)nc3cc(-c4ccc(F)cc4)nn23)CC1 as the compound, how does the EC50 [10] read?
Answer: The EC50 was 9.14 µM (active).

Question: What about the CC50 [8] of the same compound?
Answer: The CC50 was 11.7 µM (active).

Question: What about the EC50 [11] of the same compound?
Answer: The EC50 was 10.6 µM (active).

Question: Which IC50 (Leucine aminopeptidase) does the source give for CCOc1c(Br)cc(CNc2nc[nH]n2)cc1OC here?
Answer: Its IC50 is 22.7 µM (active).
